# Measured values published in US10336702B2, “Pharmaceutically active compounds” (BERGENBIO ASA, priority 2015, dated 2019).
# Tests used:
# p-Akt1 in LNCaP cells = biological target: T1, p-Akt1 in LNCaP cells (Homo sapiens, UniProt P31749); test: Phospho-Akt cellular SureFire assay, p-Akt1 in LNCaP cells; type: cell-based; settings: read-out: Biological Assay 2 IC50 (nM) Akt1 LNCaP
# T1 construct: SureFire assays to detect cellular p-Akt1, p-Akt2 and p-Akt3 levels in WM115 cells (Akt2/3) and LNCaP cells (Akt1); endogenous in cells; host or cells: LNCaP (ECACC 89110211)
# Method in brief: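 LNCaP cells, 5×10^4/well, seeded overnight, switched to 0.1% FBS medium without insulin stimulation, then compound for 15 min at 37 °C (0.3% DMSO). Lysate p-Akt1 (pThr308) by AlphaScreen SureFire, two 2 h incubations at room temperature; IC50 by 4-parameter fit.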
# p-Akt3 in WM115 cells = biological target: T2, p-Akt3 in WM115 cells (Homo sapiens, UniProt Q9Y243); test: Phospho-Akt cellular SureFire assay, p-Akt3 in WM115 cells; type: cell-based; settings: insulin stimulated, read-out: Biological Assay 2 IC50 (nM) Akt3 WM115
# T2 construct: SureFire assays to detect cellular p-Akt1, p-Akt2 and p-Akt3 levels in WM115 cells (Akt2/3) and LNCaP cells (Akt1); endogenous in cells; host or cells: WM115 (ECACC 91061232), insulin-stimulated
# Method in brief: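 WM115 cells were serum-reduced to 0.1% FBS, stimulated with 100 nM insulin for 10 min, then exposed to compound (0.3% DMSO) for 15 min at 37 °C. Lysates were assayed for Thr308-phosphorylated Akt3 by AlphaScreen SureFire using an isoform-specific total Akt3 capture antibody. IC50 was derived from a 4-parameter fit.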
# Akt2 = biological target: T3, Akt2 (Homo sapiens, UniProt P31751); test: Akt activation assay (PDK1-mediated activation, LANCE Ultra crosstide TR-FRET), Akt2; type: biochemical; settings: read-out: Biological Assay 1 IC50 (nM) Akt2
# T3 construct: unspecified tag, removed (detagged) (cleaved yes); purchased SignalChem and Proteros (Akt2); Merck Millipore (PDK1) 14-452 (PDK1); none given for Akt2
# Method in brief: (§1)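 Unactivated Akt (5 nM Akt1, 15 or 5 nM Akt2, 3 or 5 nM Akt3, by supplier) preincubated with compound, then activated by 5 nM PDK1 on DOPS/DOPC/PtdIns(3,4,5)P3 vesicles with 100 μM ATP and 100 nM Ulight-crosstide, pH 7.5, 30 min. Eu-anti-phospho-crosstide TR-FRET (665/615 nm); IC50 by 4-parameter fit.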
# Akt3 = biological target: T4, Akt3 (Homo sapiens, UniProt Q9Y243); test: Akt activation assay (PDK1-mediated activation, LANCE Ultra crosstide TR-FRET), Akt3; type: biochemical; settings: read-out: Biological Assay 1 IC50 (nM) Akt3
# T4 construct: unspecified tag, removed (detagged) (cleaved yes); purchased SignalChem and Proteros (Akt3); Merck Millipore (PDK1) 14-452 (PDK1); none given for Akt3
# Method in brief: as §1
# p-Akt2 in WM115 cells = biological target: T5, p-Akt2 in WM115 cells (Homo sapiens, UniProt P31751); test: Phospho-Akt cellular SureFire assay, p-Akt2 in WM115 cells; type: cell-based; settings: insulin stimulated, read-out: Biological Assay 2 IC50 (nM) Akt2 WM115
# T5 construct: SureFire assays to detect cellular p-Akt1, p-Akt2 and p-Akt3 levels in WM115 cells (Akt2/3) and LNCaP cells (Akt1); endogenous in cells; host or cells: WM115 (ECACC 91061232), insulin-stimulated
# Method in brief: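 WM115 cells in 0.1% FBS medium stimulated 10 min with 100 nM insulin, then exposed to compound for 15 min at 37° C (0.3% DMSO final). Lysates assayed by AlphaScreen with anti-(pThr308)Akt and isoform-specific total Akt2 antibodies; IC50 from 4-parameter fit.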
# Akt1 = biological target: T6, Akt1 (Homo sapiens, UniProt P31749); test: Akt activation assay (PDK1-mediated activation, LANCE Ultra crosstide TR-FRET), Akt1; type: biochemical; settings: read-out: Biological Assay 1 IC50 (nM) Akt1
# T6 construct: unspecified tag, removed (detagged) (cleaved yes); purchased SignalChem and Proteros (Akt1); Merck Millipore (PDK1) 14-452 (PDK1); none given for Akt1
# Method in brief: as §1
# T5 sequence (P31751 whole entry): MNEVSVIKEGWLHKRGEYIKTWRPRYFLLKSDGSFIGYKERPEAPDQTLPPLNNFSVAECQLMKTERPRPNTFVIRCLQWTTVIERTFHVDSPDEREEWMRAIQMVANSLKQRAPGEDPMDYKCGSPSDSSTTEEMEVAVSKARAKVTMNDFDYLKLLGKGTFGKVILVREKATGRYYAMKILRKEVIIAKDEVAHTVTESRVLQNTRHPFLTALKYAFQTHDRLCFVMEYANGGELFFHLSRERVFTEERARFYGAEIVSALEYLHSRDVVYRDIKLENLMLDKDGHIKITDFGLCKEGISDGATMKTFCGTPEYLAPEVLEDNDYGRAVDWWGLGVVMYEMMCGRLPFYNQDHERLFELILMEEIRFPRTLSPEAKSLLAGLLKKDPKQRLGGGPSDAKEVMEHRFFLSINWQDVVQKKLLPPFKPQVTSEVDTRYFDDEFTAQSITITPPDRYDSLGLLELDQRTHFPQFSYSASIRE
# T3 sequence (P31751 whole entry): as above
# T4 sequence (Q9Y243 whole entry): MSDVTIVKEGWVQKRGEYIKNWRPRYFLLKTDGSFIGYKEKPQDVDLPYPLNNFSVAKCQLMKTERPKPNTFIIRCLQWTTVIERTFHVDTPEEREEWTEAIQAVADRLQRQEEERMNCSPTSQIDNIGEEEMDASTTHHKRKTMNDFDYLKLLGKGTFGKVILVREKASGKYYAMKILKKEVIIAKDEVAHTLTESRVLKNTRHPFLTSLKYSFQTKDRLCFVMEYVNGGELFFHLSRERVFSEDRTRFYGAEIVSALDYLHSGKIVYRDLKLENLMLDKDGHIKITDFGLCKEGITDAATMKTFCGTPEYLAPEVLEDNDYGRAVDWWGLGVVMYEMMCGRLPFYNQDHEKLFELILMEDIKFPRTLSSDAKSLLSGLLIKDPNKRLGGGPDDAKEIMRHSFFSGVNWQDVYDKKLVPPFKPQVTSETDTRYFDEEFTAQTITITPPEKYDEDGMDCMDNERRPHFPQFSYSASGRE
# T2 sequence (Q9Y243 whole entry): as above
# T6 sequence (P31749 whole entry): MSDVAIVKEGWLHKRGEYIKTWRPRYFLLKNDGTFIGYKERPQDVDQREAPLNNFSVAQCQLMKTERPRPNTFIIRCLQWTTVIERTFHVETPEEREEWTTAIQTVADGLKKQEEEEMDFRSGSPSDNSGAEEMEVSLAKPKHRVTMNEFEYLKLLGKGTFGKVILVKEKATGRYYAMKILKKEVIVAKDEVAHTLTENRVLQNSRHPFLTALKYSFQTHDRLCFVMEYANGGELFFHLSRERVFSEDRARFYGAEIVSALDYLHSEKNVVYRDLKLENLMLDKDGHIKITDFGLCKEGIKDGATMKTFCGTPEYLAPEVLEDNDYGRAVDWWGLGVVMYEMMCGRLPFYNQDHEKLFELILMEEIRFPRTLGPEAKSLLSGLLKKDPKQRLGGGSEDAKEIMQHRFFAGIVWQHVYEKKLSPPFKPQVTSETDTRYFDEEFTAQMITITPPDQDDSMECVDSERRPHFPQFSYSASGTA
# T1 sequence (P31749 whole entry): as above
Compound,IC50 (p-Akt1 in LNCaP cells),IC50 (p-Akt3 in WM115 cells),IC50 (Akt2),IC50 (Akt3),IC50 (p-Akt2 in WM115 cells),IC50 (Akt1)
"CC(=O)N(C)[C@H]1CC[C@H](CC(=O)Nc2cnc(-c3ccc([C@H](C)N)cc3)c(-c3ccccc3)c2)CC1 [Example 7, N-(6-(4-((S)-1-aminoethyl)phenyl)-5-phenylpyridin-3-yl)-2-(trans-4-(N-methylacetamido)cyclohexyl)acetamide]",> 30000 nM,300 nM,9200 nM,350 nM,10000 nM,> 30000 nM
"CC(=O)N(C(C)C)[C@H]1CC[C@H](CC(=O)Nc2cc(-c3ccccc3)c(-c3ccc([C@]4(N)C[C@](C)(O)C4)cc3)cn2)CC1 [Example 102, N-(5-(4-(trans-1-amino-3-hydroxy-3-methylcyclobutyl)phenyl)-4-phenylpyridin-2-yl)-2-(trans-4-(N-isopropylacetamido)cyclohexyl)acetamide]",1800 nM,57 nM,140 nM,16 nM,1700 nM,4100 nM
"CC(=O)N(C)[C@H]1CC[C@H](CC(=O)Nc2cnc(-c3ccc(C(C)(C)N)c(F)c3)c(-c3ccccc3)c2)CC1 [Example 31, N-(6-(4-(2-aminopropan-2-yl)-3-fluorophenyl)-5-phenylpyridin-3-yl)-2-(trans-4-(N-methylacetamido)cyclohexyl)acetamide]",> 30000 nM,440 nM,> 15000 nM,1700 nM,> 30000 nM,> 30000 nM
"CC(C)(N)c1ccc(-c2nnc(NC(=O)C[C@H]3CC[C@H](N4CCOC4=O)CC3)cc2-c2ccccc2)cc1 [Example 65, N-(6-(4-(2-aminopropan-2-yl)phenyl)-5-phenylpyridazin-3-yl)-2-(trans-4-(2-oxooxazolidin-3-yl)cyclohexyl)acetamide]",> 30000 nM,190 nM,4100 nM,61 nM,6500 nM,> 30000 nM
"CC(C)(N)c1ccc(-c2ncc(NC(=O)C[C@H]3CC[C@H](N4CCCC4=O)CC3)cc2-c2ccccc2)cc1 [Example 24, N-(6-(4-(2-aminopropan-2-yl)phenyl)-5-phenylpyridin-3-yl)-2-(trans-4-(2-oxopyrrolidin-1-yl)cyclohexyl)acetamide]",> 18000 nM,170 nM,10000 nM,300 nM,6700 nM,> 30000 nM
"COC(=O)N(C)[C@H]1CC[C@H](CC(=O)Nc2cc(-c3ccccc3)c(-c3ccc([C@]4(N)C[C@](C)(O)C4)cc3)cn2)CC1 [Example 67, Methyl (trans-4-(2-((5-(4-(trans-1-amino-3-hydroxy-3-methylcyclobutyl)phenyl)-4-phenylpyridin-2-yl)amino)-2-oxoethyl)cyclohexyl)(methyl)carbamate]",> 9300 nM,37 nM,180 nM,8 nM,1500 nM,> 6500 nM
"CCN(C(=O)C1CC1)[C@H]1CC[C@H](CC(=O)Nc2cc(-c3ccccc3)c(-c3ccc([C@]4(N)C[C@](C)(O)C4)cc3)nn2)CC1 [Example 114, N-(trans-4-(2-((6-(4-(trans-1-amino-3-hydroxy-3-methylcyclobutyl)phenyl)-5-phenylpyridazin-3-yl)amino)-2-oxoethyl)cyclohexyl)-N-ethylcyclopropanecarboxamide]",3300 nM,5 nM,110 nM,7 nM,440 nM,> 23000 nM
"CCC(=O)N(CC)[C@H]1CC[C@H](CC(=O)Nc2cc(-c3ccccc3)c(-c3ccc([C@]4(N)C[C@](C)(O)C4)cc3)nn2)CC1 [Example 113, N-(trans-4-(2-((6-(4-(trans-1-amino-3-hydroxy-3-methylcyclobutyl)phen)-5-phenylpyridazin-3-yl)amino)-2-oxoethyl)cyclohexyl)-N-ethylpropionamide]",4100 nM,7 nM,130 nM,8 nM,510 nM,> 14000 nM
"CN([C@H]1CC[C@H](CC(=O)Nc2cnc(-c3ccc(C4(N)CCC4)cc3)c(-c3ccsc3)c2)CC1)S(C)(=O)=O [Example 17, N-(6-(4-(1-aminocyclobutyl)phenyl)-5-(thiophen-3-yl)pyridin-3-yl)-2-(trans-4-(N-methylmethylsulfonamido)cyclohexyl)acetamide]",7100 nM,140 nM,1200 nM,48 nM,1900 nM,> 26000 nM

# Other lines, results leading:
IC50 (p-Akt1 in LNCaP cells),IC50 (p-Akt3 in WM115 cells),IC50 (Akt2),IC50 (Akt3),IC50 (p-Akt2 in WM115 cells),IC50 (Akt1),Compound
1400 nM,13 nM,140 nM,6 nM,320 nM,12000 nM,"CN(C(=O)C1CC1)[C@H]1CC[C@H](CC(=O)Nc2cc(-c3ccccc3)c(-c3ccc([C@]4(N)C[C@](C)(O)C4)cc3)cn2)CC1 [Example A75, N-(trans-4-(2-((5-(4-(trans-1-amino-3-hydroxy-3-methylcyclobutyl)phenyl)-4-phenylpyridin-2-yl)amino)-2-oxoethyl)cyclohexyl)-N-methylcyclopropanecarboxamide]"
9000 nM,300 nM,220 nM,20 nM,5100 nM,> 15000 nM,"COC(=O)N(C(C)C)[C@H]1CC[C@H](CC(=O)Nc2cc(-c3ccccc3)c(-c3ccc([C@]4(N)C[C@](C)(O)C4)cc3)cn2)CC1 [Example A105, Methyl (trans-4-(2-((5-(4-(trans-1-amino-3-hydroxy-3-methylcyclobutyl)phenyl)-4-phenylpyridin-2-yl)amino)-2-oxoethyl)cyclohexyl)(isopropyl)carbamate]"
> 30000 nM,410 nM,480 nM,39 nM,5400 nM,> 30000 nM,"N[C@]1(c2ccc(-c3cnc(NC(=O)C[C@H]4CC[C@H](N5CCOC5=O)CC4)cc3-c3ccccc3)cc2)C[C@@H](F)C1 [Example A53, N-(5-(4-(trans-1-amino-3-fluorocyclobutyl)phenyl)-4-phenylpyridin-2-yl)-2-(trans-4-(2-oxooxazolidin-3-yl)cyclohexyl)acetamide]"
9700 nM,250 nM,740 nM,28 nM,8000 nM,> 30000 nM,"CC(=O)N(C)[C@H]1CC[C@H](CC(=O)Nc2cc(-c3ccccc3)c(-c3ccc([C@]4(N)C[C@H](F)C4)cc3)cn2)CC1 [Example A59, N-(5-(4-((1r,3r)-1-amino-3-fluorocyclobutyl)phenyl)-4-phenylpyridin-2-yl)-2-(trans-4-(N-methylacetamido)cyclohexyl)acetamide]"
> 30000 nM,1800 nM,> 50000 nM,110 nM,> 30000 nM,> 45000 nM,"CC(=O)N[C@H]1CC[C@H](CC(=O)Nc2cnc(-c3ccc(C(C)(C)N)cc3)c(-c3ccccc3)c2)CC1 [Example A19, 2-(trans-4-acetamidocyclohexyl)-N-(6-(4-(2-aminopropan-2-yl)phenyl)-5-phenylpyridin-3-yl)acetamide]"
> 30000 nM,520 nM,6300 nM,160 nM,> 13000 nM,> 30000 nM,"CC(=O)N(C)[C@H]1CC[C@H](CC(=O)Nc2cc(-c3ccccc3)c(-c3ccc(C4(N)CC4)c(F)c3)nn2)CC1 [Example A54, N-(6-(4-(1-aminocyclopropyl)-3-fluorophenyl)-5-phenylpyridazin-3-yl)-2-(trans-4-(N-methylacetamido)cyclohexyl)acetamide]"
> 30000 nM,910 nM,1300 nM,77 nM,> 27000 nM,> 30000 nM,"COC(=O)N(C)[C@H]1CC[C@H](CC(=O)Nc2cc(-c3ccccc3)c(-c3ccc(C4(N)CCC4)cc3)cn2)CC1 [Example A61, Methyl (trans-4-(2-((5-(4-(1-aminocyclobutyl)phenyl)-4-phenylpyridin-2-yl)amino)-2-oxoethyl)cyclohexyl)(methyl)carbamate]"
